According to US10626095B2, “Cyanotriazole compounds” (OTSUKA PHARMACEUTICAL CO., LTD., priority 2013, dated 2020):

Columns and labels:
[1] = system: Zucker Diabetic Fatty (ZDF) rat; assay: Meal load test in type 2 diabetic model rats (postprandial blood glucose); assay type: in vivo; design: unit not given here; details: ZDF rats fasted overnight, blood glucose one hour after meal loading (50 kcal/kg)
Experimental: Effects on Type 2 Diabetes: Meal Load Test
To evaluate whether a cyanotriazol compound improves diabetes or not, especially related to postprandial blood glucose, meal load test was performed using one of type 2 diabetic model rats, the Zucker Diabetic Fatty (ZDF) rat (Charles river, Japan). About 24 animals fasted overnight (17 h) were taken blood samples from the tail veins, and measured blood glucose levels (Pre BG) and body weights (BW). Proper animals were selected and divided into […] (n=6) based on the Pre BG and BW using SAS Statistical Analysis System (SAS institute Japan Ltd. Release 9.1). The compounds to be tested (10 or 30 mg/kg body weight in 5% Arabia gum) or Arabia gum solution only (vehicle group) were orally administrated via gavage two hours prior to or just before meal loading (50 kcal/kg body weight). The meal suspension was prepared by mixing purified AIN-93G (Norsan Corp, Yokohama, Japan) and distilled water (2:3, w/v). One-hour after meal loading, blood glucose (BG1h) of each animal was measured. Effectiveness of each compound was shown by ? BG1h (BG1h difference between compound group and vehicle group). Although a set of 24 animals was used several times (from 13 weeks to 21 weeks of age), at least a one-week interval was placed from one to another test.

[2] = system: NaCT-CHO (CHO cells stably expressing human NaCT); assay: Assay of the citric acid cycle activation ([1,5-14C]-citric acid, diffusion of [14C]-CO2); assay type: cell-based; details: 1 hour incubation at 37° C. with [1,5-14C]-citric acid
Method in brief: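 NaCT-CHO cells (pME-CHO empty-vector cells for non-specific counts) were incubated 1 h at 37 °C in Na+-containing HEPES-Tris pH 7.4 with compound plus an equal volume of 0.4 mM [1,5-14C]-citric acid solution. Residual cell radioactivity was counted, [14C]-CO2 diffusion was taken as (Total−R)/(Total−NS)×100%, and EC50 was derived by regression.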

## Cc1cc(-c2ccc(C(F)(F)F)nc2)cc(-c2nn[nH]c2C#N)c1 [Example 11, 5-[3-methyl-5-(6-trifluoromethyl-pyridin-3-yl)-phenyl]-3H-[1,2,3]triazole-4-carbonitrile]
[1]; oral 10 mg/kg in 5% Arabia gum
  BG1h (BG1h difference between compound group and vehicle group): −93.2
[2]
  EC50: 670 nM

## N#Cc1[nH]nnc1-c1cc(-c2cccc(C(F)(F)F)n2)cc(C(F)(F)F)c1 [Example 14, 5-[3-trifluoromethyl-5-(6-trifluoromethyl-pyridin-2-yl)-phenyl]-3H-[1,2,3]triazole-4-carbonitrile]
[1]; oral 10 mg/kg in 5% Arabia gum
  BG1h (BG1h difference between compound group and vehicle group): −79.2
[2]
  EC50: 500 nM

## COc1cc(-c2cc(C(F)(F)F)ccn2)cc(-c2nn[nH]c2C#N)c1 [Example 15, 5-[3-methoxy-5-(4-trifluoromethyl-pyridin-2-yl)-phenyl]-3H-[1,2,3]triazole-4-carbonitrile]
[1]; oral 10 mg/kg in 5% Arabia gum
  BG1h (BG1h difference between compound group and vehicle group): −50.5
[2]
  EC50: 490 nM

## N#Cc1[nH]nnc1-c1cccc(-c2nccc(C(F)(F)F)n2)c1 [Example 21, 5-[3-(4-trifluoromethyl-pyrimidin-2-yl)-phenyl]-3H-[1,2,3]triazole-4-carbonitrile]
[1]; oral 10 mg/kg in 5% Arabia gum
  BG1h (BG1h difference between compound group and vehicle group): −95.7
[2]
  EC50: 770 nM

## Cc1cc(-c2nccc(C(F)(F)F)n2)cc(-c2nn[nH]c2C#N)c1 [Example 22, 5-[3-methyl-5-(4-trifluoromethyl-pyrimidin-2-yl)-phenyl]-3H-[1,2,3]triazole-4-carbonitrile]
[1]; oral 10 mg/kg in 5% Arabia gum
  BG1h (BG1h difference between compound group and vehicle group): −108.5
[2]
  EC50: 650 nM

## N#Cc1[nH]nnc1-c1cc(Cl)cc(-c2nccc(C(F)(F)F)n2)c1 [Example 23, 5-[3-chloro-5-(4-trifluoromethyl-pyrimidin-2-yl)-phenyl]-3H-[1,2,3]triazole-4-carbonitrile]
[1]; oral 10 mg/kg in 5% Arabia gum
  BG1h (BG1h difference between compound group and vehicle group): −137.0
[2]
  EC50: 450 nM

## N#Cc1[nH]nnc1-c1cc(Cl)cc(-c2ccc(OC(F)(F)F)cc2)c1 [Example 29, 5-(5-chloro-4′-trifluoromethoxy-biphenyl-3-yl)-3H-[1,2,3]triazole-4-carbonitrile]
[1]; oral 10 mg/kg in 5% Arabia gum
  BG1h (BG1h difference between compound group and vehicle group): −37.3
[2]
  EC50: 680 nM

## N#Cc1ccc(/C=C/c2cccc(-c3nn[nH]c3C#N)c2)cc1 [Example 41, 5-{3-[(E)-2-(4-cyano-phenyl)-vinyl]-phenyl}-3H-[1,2,3]triazole-4-carbonitrile]
[1]; oral 10 mg/kg in 5% Arabia gum
  BG1h (BG1h difference between compound group and vehicle group): −158.0
[2]
  EC50: 390 nM

## N#Cc1[nH]nnc1-c1cc(Cl)cc(/C=C/c2cccc(C(F)(F)F)c2)c1 [Example 47, 5-{3-chloro-5-[(E)-2-(3-trifluoromethyl-phenyl)-vinyl]-phenyl}-3H-[1,2,3]triazole-4-carbonitrile]
[1]; oral 10 mg/kg in 5% Arabia gum
  BG1h (BG1h difference between compound group and vehicle group): −89.7
[2]
  EC50: 1070 nM

## CC(OC(=O)OCC(C)(C)C(=O)O)n1nc(C#N)c(-c2cc(/C=C/c3cccc(C(F)(F)F)n3)cc(C(F)(F)F)c2)n1 (stereo not shown) [Example 1813, 3-[1-(4-cyano-5-{3-trifluoromethyl-5-[(E)-2-(6-trifluoromethyl-pyridin-2-yl)-vinyl]-phenyl}-2H-[1,2,3]triazol-2-yl)-ethoxycarbonyloxy]-2,2-dimethyl-propionic acid]
[1]; oral 30 mg/kg in 5% Arabia gum
  BG1h (BG1h difference between compound group and vehicle group): −73.0

## CC(OC(=O)OCC(C)(C)C(=O)O)n1nc(C#N)c(-c2csc(-c3ccc(Cl)cc3)n2)n1 (stereo not shown) [Example 1814]
[1]; oral 30 mg/kg in 5% Arabia gum
  BG1h (BG1h difference between compound group and vehicle group): −108.7

## CC(OC(=O)OCC(C)(C)C(=O)O)n1nc(C#N)c(-c2cccc(/C=C/c3cc(C(F)(F)F)ccn3)c2)n1 (stereo not shown) [Example 1815, 3-[1-(4-cyano-5-{3-[(E)-2-(4-trifluoromethyl-pyridin-2-yl)-vinyl]-phenyl}-2H-[1,2,3]triazol-2-yl)-ethoxycarbonyloxy]-2,2-dimethyl-propionic acid]
[1]; oral 30 mg/kg in 5% Arabia gum
  BG1h (BG1h difference between compound group and vehicle group): −63.2

## CC(OC(=O)OCC(C)(C)C(=O)O)n1nc(C#N)c(-c2cccc(/C=C/c3nccc(C(F)(F)F)n3)c2)n1 (stereo not shown) [Example 1816, 3-[1-(4-cyano-5-{3-[(E)-2-(4-trifluoromethyl-pyrimidin-2-yl)-vinyl]-phenyl}-2H-[1,2,3]triazol-2-yl)-ethoxycarbonyloxy]-2,2-dimethyl-propionic acid]
[1]; oral 30 mg/kg in 5% Arabia gum
  BG1h (BG1h difference between compound group and vehicle group): −45.5

## CC(OC(=O)OCC(C)(C)C(=O)O)n1nc(C#N)c(-c2nc(-c3cccc(C(F)(F)F)c3)sc2Cl)n1 (stereo not shown) [Example 1817, 3-(1-{4-[5-chloro-2-(3-trifluoromethyl-phenyl)-thiazol-4-yl]-5-cyano-2H-[1,2,3]triazol-2-yl}-ethoxycarbonyloxy)-2,2-dimethyl-propionic acid]
[1]; oral 30 mg/kg in 5% Arabia gum
  BG1h (BG1h difference between compound group and vehicle group): −106.5

## CC(OC(=O)OCC(C)(C)C(=O)O)n1nc(C#N)c(-c2csc(-c3cccc(OC(F)(F)F)c3)n2)n1 (stereo not shown) [Example 1818, 3-(1-{4-cyano-5-[2-(3-trifluoromethoxy-phenyl)-thiazol-4-yl]-2H-[1,2,3]triazol-2-yl}-ethoxycarbonyloxy)-2,2-dimethyl-propionic acid]
[1]; oral 30 mg/kg in 5% Arabia gum
  BG1h (BG1h difference between compound group and vehicle group): −33.0

## CC(OC(=O)OCC(C)(C)C(=O)O)n1nc(C#N)c(-c2csc(-c3ccc(Cl)c(Cl)c3)n2)n1 (stereo not shown) [Example 1819, 3-(1-{4-cyano-5-[2-(3,4-dichloro-phenyl)-thiazol-4-yl]-2H-[1,2,3]triazol-2-yl}-ethoxycarbonyloxy)-2,2-dimethyl-propionic acid]
[1]; oral 30 mg/kg in 5% Arabia gum
  BG1h (BG1h difference between compound group and vehicle group): −54.3

## Cc1sc(-c2ccc(C(F)(F)F)cc2)nc1-c1nn(C(C)OC(=O)OCC(C)(C)C(=O)O)nc1C#N (stereo not shown) [Example 1820, 3-(1-{4-cyano-5-[5-methyl-2-(4-trifluoromethyl-phenyl)-thiazol-4-yl]-2H-[1,2,3]triazol-2-yl}-ethoxycarbonyloxy)-2,2-dimethyl-propionic acid]
[1]; oral 30 mg/kg in 5% Arabia gum
  BG1h (BG1h difference between compound group and vehicle group): −77.0

## CC(C)c1oc(-c2ccc(Cl)cc2)nc1-c1nn(C(C)OC(=O)OCC(C)(C)C(=O)O)nc1C#N (stereo not shown) [Example 1822, 3-(1-{4-[2-(4-chloro-phenyl)-5-isopropyl-oxazol-4-yl]-5-cyano-2H-[1,2,3]triazol-2-yl}-ethoxycarbonyloxy)-2,2-dimethyl-propionic acid]
[1]; oral 30 mg/kg in 5% Arabia gum
  BG1h (BG1h difference between compound group and vehicle group): −36.0

## Cc1sc(-c2ccc(F)c(Cl)c2)nc1-c1nn(C(C)OC(=O)OCC(C)(C)C(=O)O)nc1C#N (stereo not shown) [Example 1823, 3-(1-{4-[2-(3-chloro-4-fluoro-phenyl)-5-methyl-thiazol-4-yl]-5-cyano-2H-[1,2,3]triazol-2-yl}-ethoxycarbonyloxy)-2,2-dimethyl-propionic acid]
[1]; oral 30 mg/kg in 5% Arabia gum
  BG1h (BG1h difference between compound group and vehicle group): −63.3

## Cc1cc(-c2ccc(C(F)(F)F)nc2)cc(-c2nn(C(C)OC(=O)OCC(C)(C)C(=O)O)nc2C#N)c1 (stereo not shown) [Example 1825, 3-(1-{4-cyano-5-[3-methyl-5-(6-trifluoromethyl-pyridin-3-yl)-phenyl]-2H-[1,2,3]triazol-2-yl}-ethoxycarbonyloxy)-2,2-dimethyl-propionic acid]
[1]; oral 30 mg/kg in 5% Arabia gum
  BG1h (BG1h difference between compound group and vehicle group): −48.3

## CC(OC(=O)OC(C)(C)CC(=O)O)n1nc(C#N)c(-c2cccc(OCc3cc(C(F)(F)F)ccc3C(F)(F)F)c2)n1 (stereo not shown) [Example 1827, 3-(1-{4-[3-(2,5-bis-trifluoromethylbenzyloxy)phenyl]-5-cyano-2H-[1,2,3]triazol-2-yl}ethoxycarbonyloxy)-3-methylbutyric acid]
[1]; oral 30 mg/kg in 5% Arabia gum
  BG1h (BG1h difference between compound group and vehicle group): −82.5

## CC(OC(=O)OCCO)n1nc(C#N)c(-c2cccc(OCc3cc(C(F)(F)F)ccc3C(F)(F)F)c2)n1 (stereo not shown) [Example 1828, carbonic acid 1-{4-[3-(2,5-bis-trifluoromethylbenzyloxy)phenyl]-5-cyano-2H-[1,2,3]triazol-2-yl}ethyl ester-2-hydroxyethyl ester]
[1]; oral 30 mg/kg in 5% Arabia gum
  BG1h (BG1h difference between compound group and vehicle group): −69.3

## CC(=O)OCn1nc(C#N)c(-c2cc(C)cc(-c3nccc(C(F)(F)F)n3)c2)n1 [Example 1829, acetic acid 4-cyano-5-[3-methyl-5-(4-trifluoromethylpyrimidin-2-yl)phenyl]-2H-[1,2,3]triazol-2-ylmethyl ester]
[1]; oral 30 mg/kg in 5% Arabia gum
  BG1h (BG1h difference between compound group and vehicle group): −93.7

## CC(=O)OCn1nc(C#N)c(-c2cc(Cl)cc(/C=C/c3cccc(C(F)(F)F)c3)c2)n1 [Example 1830, acetic acid 4-{3-chloro-5-[(E)-2-(3-trifluoromethylphenyl)vinyl]phenyl}-5-cyano-2H-[1,2,3]triazol-2-ylmethyl ester]
[1]; oral 30 mg/kg in 5% Arabia gum
  BG1h (BG1h difference between compound group and vehicle group): −52.5

## CCCC(=O)OCn1nc(C#N)c(-c2cc(Cl)cc(/C=C/c3cccc(C(F)(F)F)c3)c2)n1 [Example 1831]
[1]; oral 30 mg/kg in 5% Arabia gum
  BG1h (BG1h difference between compound group and vehicle group): −61.0
